Assay results from patent publication US8377934B2, “Use of stilbene derivatives for treatment and prevention of aquatic mold infections” (State of Israel, Ministry of Agriculture & Rural …, priority 2006, dated 2013).
In brackets after ≈: the same amount, converted by molar mass.

Experiments:
Daphnia sp. = experiment: Toxicity to zooplankton (motility); assay type: in vivo; conditions: 100 and 1,000 mg/L, 48 h
Method: Daphnia sp. is a small (0.2 to 5 mm in length) planktonic crustacean, commonly used as a model for aquatic toxicity.
Daphnia (˜1,000 […]/L water) was exposed to Blankophor® BA 100 and 1,000 mg/L). The experiment was carried out in covered flasks (100 ml/per flask), equipped with air supply. The flasks were incubated at room temperature for 48 h, and the Daphnia motility was recorded.

[1] = system: Chlorella, Microcystis, Peridinium, Melosira and Lake Kinneret samples; experiment: 14C-carbon uptake study of photosynthetic activity; assay type: cell-based, phytoplankton; conditions: 100 mg/L
Method: FIG. 6 illustrates the effect of exposure to Blankophor® BA (100 mg/L) (□) on photosynthetic activity in pure cultures of Chlorella (C), Microcystis (M), Peridinium (P) and Melosira (Me), and in samples from Lake Kinneret (LK), as determined by ^14C-uptake. Control, (▪).
(§1) Samples from Lake Kinneret and pure cultures of Peridinium sp. and Microcystis sp. were exposed to Blankophor® BA (100 mg/L), for a few minutes and the concentration of chlorophyll-a was determined (in duplicate) according to the excitation spectrum examined (range from 400 to 730 nm). In addition, the exposed and non-exposed samples were assessed for carbon uptake with a ^14C technique.

[2] = system: Saprolegnia parasitica T-1; experiment: Tilapia-saprolegniosis early infection model; assay type: in vivo, Hybrid tilapia (Oreochromis niloticus X Oreochromis aureus)
Method: Hybrid tilapia (Oreochromis niloticus X Oreochromis aureus), with an average weight of 20 g were treated against ectoparasites using 25 μg/ml of formaldehyde (37% v/v) two weeks prior to the experiment, and were maintained at a constant temperature of 21° C. in a 100 liter polyethylene tank. The water tank was cooled from an initial temperature of 21° C. to 14° C. over a period of 10 days. The water was kept at a constant temperature of 14° C. and the fish were acclimated for 4 days. Physical stress of abrasion was then applied by agitating 40 fish for 10 seconds within a plastic net (30×20 cm). Following this, a sterile stainless steel tea infuser containing 60 clover-seeds covered with hyphae of Saprolegnia parasitica T-1 (7 day old culture on GP-PS medium at 18° C.) was added to each tank, in which the fish density was 20 fish per 100 liters. This treatment lasted 48 h and allowed the dispersion of zoospores that were produced. The density of the zoospores in the water was determined according to the method described below, and was estimated as 5×10^2-2×10^3 zoospores per liter. The fish were then transferred to different tanks, and treated with Blankophor® BA (200, 100, 50 or 25 mg/L) or Malachite Green (0.25 mg/L) for 8 h at 13-14° C., with 10 fish per 100 L water. The treatments were applied on 2nd, 4th and 6th day following initiation of the experiment. The fish were monitored for 14 days for the presence of any lesion covered with hyphae, indicative of Saprolegnia infection. Skin biopsies of diseased and moribund fish were checked microscopically (10× and 40× magnification). Morbidity and mortality was monitored daily. Moribund and or dead fish were removed from all tanks during the experimental period.
The determination of zoospore density in the water was performed according to Willoughby, L. G. (1994) Fungi and fish diseases, Pisces Press, Stirling, Scotland p. 57.
In brief, a 1 liter sample of water from the 100 liter tank was divided into 1 and 10 ml aliquots in sterile Petri dishes. Each sample was diluted with water to give a final volume of 20 ml and then one sterile clover seed was added in order to attract and keep the zoospores. All the water samples were incubated at room temperature for 72 h allowing spore germination. The density of the zoospores was determined according to the number of seeds covered with visible mycelium.
Treatments were carried out on the 2nd, 4th and 6th days after the initiation of the infection, and each treatment was for a period of 8 h. Fish treated with 0.25 mg/L Malachite Green served as a positive treatment control. Fish were monitored for 14 days. […] All fish treated with Blankophor BA survived for at least 10 days following initiation of the infection, in contrast to untreated fish which progressively died from the 3rd day.
Due to the high efficacy of the treatment with 100 mg/L Blankophor® BA, additional experiments were performed using lower concentrations of Blankophor® BA (50 and 25 mg/L). As in the previous experiments, infected fish were treated in tanks containing different concentrations of the compound on the 2nd, 4th and 6th days after the initiation of the infection. In addition, two additional treatment regimens were added i.e. 50 mg/L (administered on the 2nd and 9th days after initiation of the infection) and 100 mg/L (administered on the 2nd day after initiation of the infection).

Microcystis = experiment: Delayed Fluorescent Excitation Spectroscopy (DFES) of pure algal culture; assay type: cell-based, Microcystis sp.; conditions: 100 mg/L
Text: The Delayed Fluorescent Excitation Spectroscopy (DFES) method was used for qualitative and quantitative assessment of the influence of Blankophor® BA on the natural population of phytoplankton, and on specific algae strains. Delayed fluorescence is a unique characteristic of photosynthetically active cells, as it is an outcome of recombination that takes place in the thylakoids in the dark (Yacobi Y. Z., V. Gerhardt, Y. Gonen-Zurgil, and A. Sukenik. 1998. Delayed fluorescence excitation spectroscopy: a rapid method for the qualitative and quantitative assessment of natural population of phytoplankton. Wat. Res. 00:1-6).
as §1

various fish species = experiment: Toxicity testing in various fish species; assay type: in vivo; conditions: all five fish species tested, 15° C., up to 96 h
Method: LC50 values for Blankophor® BA in various fish species were determined as in Example 2, except that fish were acclimated to 21° C. for three weeks, and then to 15° C. for another two weeks before the initiation of the experiment. Following acclimation to 15° C., Blankophor® BA (100, 200, 500, 1,000 or 2,000 mg/L) was added to the tanks, and mortality of fish was recorded up to 96 h. […] The fish used were: hybrid tilapia (Oreochromis niloticus X O. aureus), average weight 20 g; grey mullet (Mugil cephalus), average weight 70 g; common carp (Cyprinus carpio), average weight 25 g; hybrid striped bass (Morone saxatilis X M. chrysops), average weight 25 g, and grass carp (Ctenopharyngodon idella), average weight 25 g.

S. parasitica T-1 = experiment: Agar-dilution susceptibility testing (filamentous hyphae); assay type: cell-based, Saprolegnia parasitica; conditions: 24 h
Method: Two methods were used, each suitable for a different phase of the asexual life cycle of Saprolegnia spp.: i) the broth macrodilution method, for determination of susceptibility of zoospores and cysts; and ii) the agar-dilution method for determination of susceptibility of filamentous hyphae. Each compound was tested three times in each method. Malachite Green was used as positive control.
Twofold serial dilutions were prepared in double distillated sterile water with final drug concentrations ranging from 10,000 to 0.01 mg/L in a final volume of 1.0 ml. […] The mixture was vortexed, and poured into small plates. After agar solidification a small measured piece, taken from a 7-10 day old culture of S. parasitica T-1 on GP-PS medium was placed upside down on each plate. The plates were incubated at room temperature (15-20° C.) for 24 h.

O=S(=O)([O-])c1cc(Nc2nc(Nc3ccccc3)nc(N(CCO)CCO)n2)ccc1C=Cc1ccc(Nc2nc(Nc3ccccc3)nc(N(CCO)CCO)n2)cc1S(=O)(=O)[O-].[K+].[Na+] [Blankophor® BA]
Daphnia motility versus non-exposed control (Daphnia sp.): no difference
photosynthetic activity (14C-carbon uptake) [1]: did not decrease
preventing and treating saprolegniosis in tilapia fish ([2]; 25 mg/liter for 8 hours): effective
clinical observation, lesions ([2]; 50 and 100 mg/L): free of lesions
culture for Saprolegnia ([2]; 50 and 100 mg/L): negative upon culture
survival following initiation of the infection ([2]; 100 and 200 mg/L, 8 h on 2nd, 4th and 6th day, all treated fish): at least 10 days
therapeutic efficacy (survival of fish) ([2]; 100 and 200 mg/L, 8 h on 2nd, 4th and 6th day, monitored 14 days): as effective as Malachite Green
Therapeutic efficacy ([2]; Table 4 summary): Very Effective
efficacy in preventing and treating early stage saprolegniosis ([2]; even at a concentration as low as 25 mg/L, also 50 mg/L (days 2, 9) and 100 mg/L (day 2)): highly effective
photosynthetic activity versus non-treated samples (Microcystis): no difference
LC50 (various fish species): greater than 2000 mg/L
MIC, Agar-dilution (S. parasitica T-1; S. parasitica T-1, 15-20° C., geometric mean of three tests): 200 µg/mL

C=O [Formaldehyde]
fish died within 14 days ([2]; 100 mg/L on 2nd, 4th and 6th days): 70%
MIC (S. parasitica T-1; Saprolegnia parasitica, read-out: MIC, Agar-dilution): 100 µg/mL (≈ 3.33 mM)
